Assay results reported in ChEMBL document CHEMBL1136982, “Discovery of 1-benzoyl-3-cyanopyrrolo[1,2-a]quinolines as a new series of apoptosis inducers using a cell- and caspase-based high-throughput screening assay. 2: Structure-activity relationships of the 4-, 5-, 6-, 7- and 8-positions” (Bioorg Med Chem Lett, 2009).
Calls of active or inactive are those of the source. The rule behind the calls is not given here.

Assays:
HCT-116 [1] = assay: Induction of apoptosis in human HCT116 cells measured after 48 hrs by cell and caspase based HTS assay; format: functional; conditions: HCT-116, 48 h
T47D [2] = assay: Induction of apoptosis in human T47D cells measured after 48 hrs by cell and caspase based HTS assay; format: functional
SNU-398 [3] = assay: Induction of apoptosis in human SNU398 cells measured after 48 hrs by cell and caspase based HTS assay; format: functional; conditions: SNU-398, 48 h
SNU-398 [4] = assay: Growth inhibition of human SNU398 cells after 48 hrs; format: functional; conditions: SNU-398, 48 h
HCT-116 [5] = assay: Growth inhibition of human HCT116 cells after 48 hrs; format: functional; conditions: HCT-116, 48 h
T47D [6] = assay: Growth inhibition of human T47D cells after 48 hrs; format: functional
[7] = Inhibition of tubulin polymerization up to 50 uM
T47D [8] = assay: Cell cycle arrest in human T47D cells by accumulation at G2/M phase after 24 to 48 hrs by flow cytometry; format: functional, cell-based
[9] = Inhibition of tubulin polymerization

SMILES | EC50 (HCT-116 [1]) [nM] | EC50 (T47D [2]) [nM] | EC50 (SNU-398 [3]) [nM] | GI50 (SNU-398 [4]) [nM] | GI50 (HCT-116 [5]) [nM] | GI50 (T47D [6]) [nM] | Activity [7] | Activity (T47D [8]) | IC50 [9] [nM]
Cc1cc2ccccc2n2c(C(=O)c3ccccc3)cc(C#N)c12 | > 10000 | 5800 | > 10000 |  |  |  |  |  | 
COc1cccc(C(=O)c2cc(C#N)c3ccc4c(Cl)cccc4n23)c1 | 3700 | 80 | 1500 | 4800 | 8600 | 18 |  |  | 
N#Cc1cc(C(=O)c2ccccc2)n2c1ccc1cc(Cl)ccc12 | > 10000 | > 10000 | > 10000 |  |  |  |  |  | 
N#Cc1cc(C(=O)c2ccc(N)cc2)n2c1ccc1c(Cl)cccc12 | 3800 | 150 | 1400 |  |  |  |  |  | 
N#Cc1cc(C(=O)c2ccc([N+](=O)[O-])cc2)n2c1ccc1c(Cl)cccc12 | > 10000 | 62 | > 10000 |  |  |  |  |  | 
N#Cc1cc(C(=O)c2cccc(O)c2)n2c1ccc1c(Cl)cccc12 | 2700 | 280 | 2600 | 2600 | 5900 | 160 | inactive | Active | 
N#Cc1cc(C(=O)c2ccccc2)n2c1ccc1c(OCCN3CCOCC3)cccc12 | > 10000 | > 10000 | > 10000 |  |  |  |  |  | 
N#Cc1cc(C(=O)c2ccccc2)n2c1ccc1c([N+](=O)[O-])cccc12 | > 10000 | > 10000 | > 10000 |  |  |  |  |  | 
N#Cc1cc(C(=O)c2ccc(-n3ccnc3)cc2)n2c1ccc1ccccc12 |  |  |  |  |  |  |  |  | < 5000
N#Cc1cc(C(=O)c2cccc(N)c2)n2c1ccc1c(Cl)cccc12 | 5600 | 210 | 5000 |  |  |  |  |  | 
N#Cc1cc(C(=O)c2ccccc2)n2c1ccc1c(Cl)cccc12 | 1900 | 83 | > 10000 |  |  |  | inactive | Active | 
Cc1cc2c(C#N)cc(C(=O)c3ccccc3)n2c2ccccc12 | 310 | 520 | 220 |  |  |  |  |  | < 5000
N#Cc1cc(C(=O)c2ccccc2)n2c1ccc1c(O)cccc12 | > 10000 | > 10000 | > 10000 |  |  |  |  |  | 
N#Cc1cc(C(=O)c2cccc([N+](=O)[O-])c2)n2c1ccc1c(Cl)cccc12 | > 10000 | 150 | > 10000 |  |  |  |  |  | 
CC(=O)O[C@H]1C(=O)[C@@]2(C)[C@H]([C@H](OC(=O)c3ccccc3)[C@]3(O)C[C@H](OC(=O)[C@H](O)[C@@H](NC(=O)c4ccccc4)c4ccccc4)C(C)=C1C3(C)C)[C@]1(OC(C)=O)CO[C@@H]1C[C@@H]2O [PACLITAXEL] | 18 | 37 | 9 | 61 | 60 | 26 |  |  | 
N#Cc1cc(C(=O)c2ccc(F)cc2)n2c1ccc1c(Cl)cccc12 | > 10000 | 53 | > 10000 |  |  |  | inactive | Active | 
Cc1ccc2ccc3c(C#N)cc(C(=O)c4ccccc4)n3c2c1 | > 10000 | 280 | 5000 |  |  |  |  |  | 
N#Cc1cc(C(=O)c2ccc(-n3ccnc3)cc2)n2c1ccc1c(Cl)cccc12 | 1900 | 290 | 1400 |  |  |  |  |  | 
CN(C)CCOc1cccc2c1ccc1c(C#N)cc(C(=O)c3ccccc3)n12 | 6000 | 2800 | 4900 |  |  |  |  |  | 
Cc1ccc2c(ccc3c(C#N)cc(C(=O)c4ccccc4)n32)c1 | > 10000 | > 10000 | > 10000 |  |  |  |  |  | 
CC[C@]1(O)C[C@@H]2CN(CCc3c([nH]c4ccccc34)[C@@](C(=O)OC)(c3cc4c(cc3OC)N(C)[C@H]3[C@@](O)(C(=O)OC)[C@H](OC(C)=O)[C@]5(CC)C=CCN6CC[C@]43[C@@H]65)C2)C1 [VINBLASTINE] | 36 | 32 | 26 | 5 | 10 | 7 |  |  | 
N#Cc1cc(C(=O)c2ccc(N)cc2)n2c1ccc1ccccc12 |  |  |  |  |  |  |  |  | < 5000
